According to article PMC11218446, “Antibacterial efficacy and membrane mechanism of action of the Serratia-derived non-ionic lipopeptide, serrawettin W2-FL10” (Microbiology Spectrum, 2024):

Key:
Escherichia coli = settings: cited from earlier work
Description: (§1) Key parameters contributing to the antimicrobial activity of lipopeptides include hydrophobicity and net charge ([5], [24]). Serrawettin W2-FL10 is a relatively small and moderately amphipathic lipopeptide with a neutral charge.

L. monocytogenes B73 = settings: cited from earlier work
Description: as §1

[1] = system: methicillin-resistant S. aureus (MRSA); settings: cited from earlier work
Description: The antimicrobial activity of the serrawettin W2-FI10 analog (i.e., C10H18O2-Leu-Ser-Thr-Phe-Ile), has been extensively investigated.

[2] = system: Chinese hamster ovarian (CHO) cell line; assay: Mammalian cell cytotoxicity, MTT assay; settings: CHO cells, MTT, 48 h; reference drug
Procedure: To determine the biocompatibility of W2-FL10 as a potential therapeutic agent, the in vitro cytotoxicity of W2-FL10 against the CHO cell line ([50]) was determined over 48 h by the Drug Discovery and Development Centre at the University of Cape Town, as previously described by Mosmann ([51]). Briefly, W2-FL10 was prepared to a 10 mM stock solution in 100% DMSO and dilutions were prepared in growth media. The CHO cell line density of 10^5 cells/well in 96-well plates and allowed to attach for 24 h. Thereafter, the compound was added to the 96-well plates at various concentrations from 50 µM down to 16 nM and incubated for a further 48 h. At 44 h, MTT was added to the wells, and the plates were read 4 h later at 540 nm on a spectrophotometer. […] Finally, cell inhibition was plotted against concentration and the 50% lethal concentration (LC50) parameter and a minimum lethal concentration (MLC90) were obtained as described for the dose responses against bacterial targets above (equation 1).

## PGla
Escherichia coli
  ICF: 2.5

## tyrocidine C
L. monocytogenes B73
  ICF: 1.9
  MIC: 13 µM

## C10H18O2-Leu-Ser-Thr-Phe-Ile (lariat or depsi) [W2-FI10, serrawettin W2-FI10, serrawettin W2 analog, C10H18O2-Leu-Ser-Thr-Phe-Ile]
[1]
  concentration with inhibitory activity: 4 µg/mL

## gramicidin S
Escherichia coli
  ICF: 5.7

## CC[C@H]1CN2CCc3cc(OC)c(OC)cc3[C@@H]2C[C@@H]1C[C@H]1NCCc2cc(OC)c(OC)cc21 [emetine, reference compound]
[2]
  LC50: approximately 40 nM
